Laboratory results: US20090111710A1, “CELLULAR SIGNALING PATHWAY BASED ASSAYS, REAGENTS AND KITS” (Cell NetwoRX LLC, priority 2005, published 2009)

What was measured:
PKC subtypes □, □ and □ = details: >uM; cited from earlier work
PKC □ = details: read-out: Reported Potency IC50; cited from earlier work
[1] = tested on: relevant target and pathway; details: cited from earlier work
MEK ½ [2] = molecular target: MEK ½ (Homo sapiens, UniProt P36507); details: second value, read-out: Reported Potency IC50; cited from earlier work
MEK ½ [3] = molecular target: MEK ½ (Homo sapiens, UniProt Q02750); details: first value, read-out: Reported Potency IC50; cited from earlier work
ERK1 = ERK1 (Homo sapiens, UniProt P27361); details: read-out: Selectivity: ERK1 activity IC50; cited from earlier work
MKK4 = molecular target: T1, MKK4 (Homo sapiens, UniProt P45985); details: read-out: Selectivity: MKK4 activity IC50; cited from earlier work
T1 sequence (P45985 1-399): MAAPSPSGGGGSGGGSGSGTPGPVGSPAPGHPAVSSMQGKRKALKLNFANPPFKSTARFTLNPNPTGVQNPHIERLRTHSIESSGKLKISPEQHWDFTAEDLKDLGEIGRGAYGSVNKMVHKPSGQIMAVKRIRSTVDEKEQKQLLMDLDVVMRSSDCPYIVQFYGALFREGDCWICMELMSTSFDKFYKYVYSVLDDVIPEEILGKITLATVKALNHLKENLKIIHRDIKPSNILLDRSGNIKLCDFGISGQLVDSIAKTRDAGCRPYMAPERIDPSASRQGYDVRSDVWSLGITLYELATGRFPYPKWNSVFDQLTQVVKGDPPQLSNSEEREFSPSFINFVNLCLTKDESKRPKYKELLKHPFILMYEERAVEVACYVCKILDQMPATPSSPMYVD

angiogenesis = details: in vivo; cited from earlier work
HUVEC = details: 48 hrs, 20 nM VEGF; standard deviation of 10%
Description: The cellular phenotypes, cell proliferation and/or cell death are measured using viable cell number determination methods. Measurement of cell proliferation and cytotoxicity using the luminescent assay ViaLight™-HS High Sensitivity Cytotoxicity and Cell Proliferation BioAssay Kit from Cambrex (East Rutherford, N.J.) is optimized for HUVECs. Linear detection of cell proliferation or cell survival is possible from as few as 100 and up to 10^6 cells. […] An alternative measurement of both ATP and ADP levels provides a ratio measurement indicating cells proliferation versus cell death.

[4] = Phase III, patients with wet AMD; cited from earlier work

Chain of MEK ½ (Homo sapiens, UniProt Q02750) (Q02750 whole entry): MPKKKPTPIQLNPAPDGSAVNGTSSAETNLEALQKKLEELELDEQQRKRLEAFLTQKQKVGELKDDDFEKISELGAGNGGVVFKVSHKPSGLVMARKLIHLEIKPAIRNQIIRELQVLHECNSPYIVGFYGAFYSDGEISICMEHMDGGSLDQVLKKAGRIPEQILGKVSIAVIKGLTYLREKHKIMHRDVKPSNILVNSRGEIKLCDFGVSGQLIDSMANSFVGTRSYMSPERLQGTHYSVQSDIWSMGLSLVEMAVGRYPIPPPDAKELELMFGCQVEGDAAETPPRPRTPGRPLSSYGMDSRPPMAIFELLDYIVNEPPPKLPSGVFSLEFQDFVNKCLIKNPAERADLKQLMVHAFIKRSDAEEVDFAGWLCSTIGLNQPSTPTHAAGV
Chain of MEK ½ (Homo sapiens, UniProt P36507) (P36507 whole entry): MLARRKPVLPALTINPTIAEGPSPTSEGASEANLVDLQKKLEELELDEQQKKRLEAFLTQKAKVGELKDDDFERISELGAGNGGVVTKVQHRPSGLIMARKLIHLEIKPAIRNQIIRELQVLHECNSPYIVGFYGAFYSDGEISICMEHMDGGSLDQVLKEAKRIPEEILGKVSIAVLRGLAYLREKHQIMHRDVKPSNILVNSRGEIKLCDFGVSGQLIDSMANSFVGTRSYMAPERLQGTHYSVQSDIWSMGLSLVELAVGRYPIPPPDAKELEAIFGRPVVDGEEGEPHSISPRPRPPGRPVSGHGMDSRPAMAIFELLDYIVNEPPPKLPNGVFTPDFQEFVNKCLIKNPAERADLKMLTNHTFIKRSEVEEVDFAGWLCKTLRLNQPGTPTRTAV
Chain of ERK1 (P27361 whole entry, species assumed): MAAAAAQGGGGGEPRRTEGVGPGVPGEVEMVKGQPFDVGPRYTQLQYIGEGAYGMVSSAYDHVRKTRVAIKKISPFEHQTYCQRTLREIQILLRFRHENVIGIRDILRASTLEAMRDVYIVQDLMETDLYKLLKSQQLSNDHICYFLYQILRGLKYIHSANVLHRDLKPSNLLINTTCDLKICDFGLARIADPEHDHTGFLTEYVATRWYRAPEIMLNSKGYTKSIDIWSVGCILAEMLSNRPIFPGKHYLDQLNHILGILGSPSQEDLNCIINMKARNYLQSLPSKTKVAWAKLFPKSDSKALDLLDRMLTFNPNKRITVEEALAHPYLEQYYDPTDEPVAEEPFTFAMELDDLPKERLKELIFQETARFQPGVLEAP

For `Cn1c2ccccc2c2c3c(c4c5ccccc5n(CCC#N)c4c21)CNC3=O` [Go 6976], the “Selectivity: effect on the kinase activity of PKC subtypes □, □ and □” value (PKC subtypes □, □ and □) is given as “>uM no effect”, the IC50 (PKC □) is given as 2.3 nM and the “activity against the relevant target and pathway in vivo” value (“activity … in vivo” for short) [1] is given as “shown activity”.

For `C[S+]([O-])c1ccc(-c2nc(-c3ccncc3)c(-c3ccc(F)cc3)[nH]2)cc1` (stereo not drawn) [SB 203580], the “activity … in vivo” value [1] is listed as “shown activity”.

For `N#C/C(=C(/N)Sc1ccc(N)cc1)c1ccccc1C(F)(F)F` [SL327], the IC50 (MEK ½ [2]) is given as 220 nM, the IC50 (MEK ½ [3]) is given as 180 nM and the IC50 (ERK1) is given as > 10 µM. The IC50 (MKK4) was > 10 µM.

For `Cc1cc(C)c(/C=C2\C(=O)Nc3ccccc32)[nH]1` [SU5416], the “angiogenesis in the wound-healing model” value (angiogenesis) is given as “block angiogenesis” and the “activity … in vivo” value [1] is given as “shown activity”.

With VEGF the “signal to noise for HUVEC proliferation” value (HUVEC) was 2 fold.

B1: Lucentis: humanized antibody fragment developed at Genentech, designed to bind and inhibit Vascular Endothelial Growth Factor A (antibody, chains of the INN, looked up, V domains shown)
VH: EVQLVESGGGLVQPGGSLRLSCAASGYDFTHYGMNWVRQAPGKGLEWVGWINTYTGEPTYAADFKRRFTFSLDTSKSTAYLQMNSLRAEDTAVYYCAKYPYYYGTSHWYFDVWGQGTLVTVSS
VL: DIQLTQSPSSLSASVGDRVTITCSASQDISNYLNWYQQKPGKAPKVLIYFTSSLHSGVPSRFSGSGSGTDFTLTISSLQPEDFATYYCQQYSTVPWTFGQGTKVEIK
modifications: Fab
In the case of B1, the vision [4] is given as “improved vision”.
